# Results reported in patent US20050158264A1, “Sympathetic nerve-stimulating fragrant compositions” (SHISEIDO COMPANY, LTD., priority 2000, published 2005).
# Structures can show the parent of a compound that is named as a salt.
# Tested on: uncoupling protein-3
# Assay: not given
# Conditions: 70 mg subcutaneous tissue from 6-week-old rats; caffeine 1 mM, noradrenaline 0.5 μg/ml; FIG. 6
row,Compound,expression of uncoupling protein-3
1,Cn1c(=O)c2c(ncn2C)n(C)c1=O [caffeine],increased expression

# Tested on: sympathetic nerves
# Assay: Measurement of sympathetic nerve activity by systolic blood pressure fluctuation analysis (FLUCLET) while smelling fragrance
# Type: in vivo
# Conditions: subjects smelling fragrance 3 minutes vs 3 minutes without fragrance, FIG. 1-4
# Text: Cardiac rate intervals (heartbeat intervals) and blood pressure changes (fluctuations) are complex even during resting periods, and are governed by several systems including the sympathetic and parasympathetic nervous systems. It is known that frequency analysis of heartbeat intervals and blood pressure fluctuations can used to calculate the activity of each of these systems. The high-frequency component of cardiac rate fluctuation indicates parasympathetic nerve activity while the low-frequency component indicates the combined activity of the sympathetic and parasympathetic nervous systems, and the low-frequency component of blood pressure fluctuation indicates sympathetic nerve activity (from material by Dainippon Pharmaceutical Co.). Sympathetic nerve activity was measured by analysis of systolic blood pressure fluctuation using an autonomic nervous system activity analysis system (FLUCLET, product of Dainippon Pharmaceutical Co.). Subjects were allowed to rest for 5 minutes in a thermostatic room at room temperature (24° C.), the blood pressure value was measured on the upper arm and used to correct the blood pressure value at the wrist, and then the wrist blood pressure was continuously measured thereafter. Cotton was placed under the nostrils at the start of measurement, the blood pressure was measured for 3 minutes without fragrant substance, and then the nose cotton was impregnated with fragrant substance and the blood pressure was measured for 3 minutes.
row,Compound,effect of fragrance on relative sympathetic nerve activity (in words)
1,C=C(C)[C@H]1CC=C(C)CC1 [limonene],increased effect of sympathetic nerve activity
2,C=CC(=C)CCC=C(C)C [myrcene],increased effect of sympathetic nerve activity
3,O=C(OCc1ccccc1)c1ccccc1 [benzyl benzoate],increased effect of sympathetic nerve activity
4,pinene,increased effect of sympathetic nerve activity
5,"CCOC(=O)CC(O)(CC(=O)OCC)C(=O)OCC [TEC, triethyl citrate, reference compound]",no change
